# In patent publication US8492310B2, “Herbicidal compositions containing benzoylpyrazole compounds” (priority 2008, dated 2013):
# Like-named read-outs stand apart in the source and are kept apart here.
# Assays:
# Format in all cases: in vivo
# [1] = test system: barnyardgrass (Echinochloa crus-qalli L.); test: Foliar treatment pot test, visual growth inhibition rate, barnyardgrass (EC); details: 4.0-5.0 leaf stage, read-out: Growth inhibition rate (%) of EC Measured value; for inhibition at 250 g/ha: 192 h, 8 DAT; for inhibition at 125 g/ha: 504 h, 21 DAT
# Text: (§1) When the herbicidal activity in a case where two active ingredients are combined, is larger than the simple sum of the respective herbicidal activities of the two active ingredients (the expected activity), it is called a synergistic effect. The activity expected by the combination of two active ingredients can be calculated as follows (Colby S. R., “Weed”, vol. 15, p. 20-22, 1967). E=α+β−(α×β÷100) where
# (§2) Upland field soil was put into a 1/1,000,000 hectare pot, and seeds of various plants (barnyardgrass (Echinochloa crus-qalli L.), crabgrass (Digitaria sanguinalis L.), giant foxtail (Setaria faberi Herrm.), velvetleaf (Abutilon theophrasti MEDIC.) and prickly sida (Sida spinosa L.)) were sown. When the respective plants reached predetermined leaf stage, herbicidal compositions in predetermined amounts were diluted with water in an amount corresponding to 300 L/ha and applied for foliar treatment by a small sprayer.
# (§3) Further, in accordance with the above Colby's formula, the growth inhibition rate (calculated value) was calculated. In Tables, with respect to the compound Q, Compound Nos. in Table 1 are described, and with respect to other herbicidal compounds, common names are described. Further, in Tables, barnyardgrass is represented by “EC”, crabgrass by “DS”, giant foxtail by “SF”, velvetleaf by “AT”, and prickly sida by “SS”.
# [2] = test system: prickly sida (Sida spinosa L.); test: Foliar treatment pot test, visual growth inhibition rate, prickly sida (SS); details: Sida spinosa, foliar, read-out: Growth inhibition rate (%) of SS Measured value; for inhibition at 63 g/ha / inhibition at 125 g/ha / inhibition at 250 g/ha: 504 h, 21 DAT
# Text: as §1, §2, §3
# [3] = test system: crabgrass (Digitaria sanguinalis L.); test: Foliar treatment pot test, visual growth inhibition rate, crabgrass (DS); details: Digitaria sanguinalis, foliar, read-out: Growth inhibition rate (%) of DS Measured value; for inhibition at 175 g/ha: 504 h, 21 DAT; for inhibition at 375 g/ha: 528 h, 3.1-4.0 leaf stage, 22 DAT
# Summary of the method: (§4)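 Seeds were sown in upland soil pots, and plants were sprayed on the foliage at a predetermined leaf stage with herbicidal compositions diluted in water at 300 L/ha. Growth inhibition was rated visually. Expected combination activity was calculated by Colby's formula to assess synergy.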
# [4] = test system: velvetleaf (Abutilon theophrasti MEDIC.); test: Foliar treatment pot test, visual growth inhibition rate, velvetleaf (AT); details: Abutilon theophrasti, foliar, read-out: Growth inhibition rate (%) of AT Measured value; for inhibition at 300 g/ha: 3.1-3.4 leaf stage
# Summary of the method: as §4
# [5] = 336 h, 4.6-5.3 leaf stage, 14 DAT
# [6] = 504 h, 3.0-3.8 leaf stage, 21 DAT
# [7] = 504 h, 4.0-4.5 leaf stage, 21 DAT
smiles,measurement,setting,value
"CCNc1nc(Cl)nc(NC(C)C)n1 [Atrazine, atrazine]",inhibition at 250 g/ha,[1],10%
same,inhibition at 125 g/ha,[1],0%
same,inhibition at 63 g/ha,[2]; 3.0-3.3 leaf stage,30%
same,inhibition at 125 g/ha,[2]; 3.0-3.3 leaf stage,45%
same,inhibition at 250 g/ha,[2]; 3.0-3.3 leaf stage,65%
same,inhibition at 50 g/ha,"[3]; 336 h, 4.0-4.5 leaf stage, 14 DAT, 50 g/ha",20%
same,inhibition at 400 g/ha,"[3]; 336 h, 4.0-4.5 leaf stage, 14 DAT, 400 g/ha",30%
same,inhibition at 800 g/ha,"[3]; 336 h, 4.0-4.5 leaf stage, 14 DAT, 800 g/ha",40%
same,inhibition at 500 g/ha,"[3]; 336 h, 5.0-6.0 leaf stage, 14 DAT, 500 g/ha",0%
same,inhibition at 1000 g/ha,"[3]; 336 h, 5.0-6.0 leaf stage, 14 DAT, 1000 g/ha",10%
same,inhibition at 2000 g/ha,"[3]; 336 h, 5.0-6.0 leaf stage, 14 DAT, 2000 g/ha",25%
same,inhibition at 175 g/ha,[3]; 3.5-4.3 leaf stage,0%
same,inhibition at 375 g/ha,[3],0%
same,inhibition at 500 g/ha,[4]; [5],45%
same,inhibition at 1000 g/ha,[4]; [5],60%
same,inhibition at 2000 g/ha,[4]; [5],70%
same,inhibition at 50 g/ha,"[4]; 480 h, 3.1-3.5 leaf stage, 20 DAT, 50 g/ha",30%
same,inhibition at 100 g/ha,"[4]; 480 h, 3.1-3.5 leaf stage, 20 DAT, 100 g/ha",30%
same,inhibition at 200 g/ha,"[4]; 480 h, 3.1-3.5 leaf stage, 20 DAT, 200 g/ha",35%
same,inhibition at 400 g/ha,"[4]; 480 h, 3.1-3.5 leaf stage, 20 DAT, 400 g/ha",40%
same,inhibition at 600 g/ha,"[4]; 480 h, 3.1-3.5 leaf stage, 20 DAT, 600 g/ha",80%
same,inhibition at 800 g/ha,"[4]; 480 h, 3.1-3.5 leaf stage, 20 DAT, 800 g/ha",100%
same,inhibition at 175 g/ha,[4]; [6],0%
same,inhibition at 375 g/ha,"[4]; 528 h, 4.0-4.4 leaf stage, 22 DAT, 375 g/ha",25%
"CCNc1nc(Cl)nc(NC(C)(C)C)n1 [Terbuthylazine, terbuthylazine]",inhibition at 250 g/ha,[1],10%
same,inhibition at 125 g/ha,[1],0%
same,inhibition at 100 g/ha,"[2]; 480 h, 1.5-2.4 leaf stage, 20 DAT, 100 g/ha",55%
same,inhibition at 63 g/ha,[2]; 3.0-4.0 leaf stage,0%
same,inhibition at 125 g/ha,[2]; 3.0-4.0 leaf stage,0%
same,inhibition at 250 g/ha,[2]; 3.0-4.0 leaf stage,20%
same,inhibition at 300 g/ha,"[3]; 336 h, 3.5-4.3 leaf stage, 14 DAT, 300 g/ha",25%
same,inhibition at 175 g/ha,[3]; 3.5-4.3 leaf stage,0%
same,inhibition at 375 g/ha,[3],0%
same,inhibition at 300 g/ha,"[4]; 480 h, 20 DAT",50%
same,inhibition at 175 g/ha,[4]; [6],0%
same,inhibition at 300 g/ha,"[4]; 504 h, 21 DAT",50%
same,inhibition at 500 g/ha,[4]; [7],30%
same,inhibition at 1000 g/ha,[4]; [7],45%
same,inhibition at 2000 g/ha,[4]; [7],55%
same,inhibition at 175 g/ha,"[4]; 528 h, 4.0-4.4 leaf stage, 22 DAT",15%
